Source: patent publication US11377442B2, “Small molecule agonists and antagonists of NR2F6 activity” (ZANDER THERAPEUTICS, INC., priority 2016, dated 2022)
Like-named read-outs stand apart in the source and are kept apart here.

Legend:
Assay type in all cases: cell-based
Renilla_ERa = assay: Renilla signal in ERα counterscreen (Renilla_ERa); details: for fold induction at 2 µM / fold induction at 10 µM / fold induction at 40 µM: read-out: Renilla ERalpha transient, cmpd/DMSO (mean)
ERα [1] = biological target: T1, ERα (Homo sapiens, UniProt P03372); assay: Counterscreening, Firefly signal with ERα transient transfection (Firefly_ERa); details: 10 uM
T1 construct: expressed in transfected cells
T1 sequence (P03372 1-595): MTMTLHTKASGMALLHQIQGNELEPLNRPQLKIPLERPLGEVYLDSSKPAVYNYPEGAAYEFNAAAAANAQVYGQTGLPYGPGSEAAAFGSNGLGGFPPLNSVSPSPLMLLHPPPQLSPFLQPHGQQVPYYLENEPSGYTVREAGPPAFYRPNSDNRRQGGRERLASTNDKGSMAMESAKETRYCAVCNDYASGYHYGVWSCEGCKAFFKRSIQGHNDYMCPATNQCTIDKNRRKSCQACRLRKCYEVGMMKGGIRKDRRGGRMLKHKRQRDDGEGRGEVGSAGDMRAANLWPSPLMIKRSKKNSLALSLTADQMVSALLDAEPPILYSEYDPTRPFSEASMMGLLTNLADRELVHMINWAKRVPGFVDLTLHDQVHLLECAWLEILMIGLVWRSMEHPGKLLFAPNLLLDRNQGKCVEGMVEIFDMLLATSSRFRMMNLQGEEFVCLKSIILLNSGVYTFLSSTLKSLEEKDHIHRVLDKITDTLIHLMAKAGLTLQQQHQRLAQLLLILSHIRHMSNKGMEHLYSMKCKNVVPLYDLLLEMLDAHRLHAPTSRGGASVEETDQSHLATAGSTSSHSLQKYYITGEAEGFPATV
Experimental: The methodology for screening candidate compounds as NR2F6 agonists was as follows: For primary screening, hit criteria was ACT %>DMSO control+5*SD (DSO control) at 10 μM, or any compound with S/B>2. For rescreening, hit criteria was ACT %>DMSO control+3*SD (DSO control) in each replicate at 10 μM. For counterscreening, hit criteria was mean ACT<DMSO control+3*SD (DMSO control) with ERα transient transfection in duplicate at 10 μM.

ERα [2] = biological target: T1, ERα; assay: as above
NR2F6 = biological target: T2, NR2F6 (Homo sapiens, UniProt P10588); assay: NR2F6 agonist screening, Firefly signal cmpd/DMSO
T2 construct: expressed in transfected cells; also transient transfection
T2 sequence (P10588 1-404): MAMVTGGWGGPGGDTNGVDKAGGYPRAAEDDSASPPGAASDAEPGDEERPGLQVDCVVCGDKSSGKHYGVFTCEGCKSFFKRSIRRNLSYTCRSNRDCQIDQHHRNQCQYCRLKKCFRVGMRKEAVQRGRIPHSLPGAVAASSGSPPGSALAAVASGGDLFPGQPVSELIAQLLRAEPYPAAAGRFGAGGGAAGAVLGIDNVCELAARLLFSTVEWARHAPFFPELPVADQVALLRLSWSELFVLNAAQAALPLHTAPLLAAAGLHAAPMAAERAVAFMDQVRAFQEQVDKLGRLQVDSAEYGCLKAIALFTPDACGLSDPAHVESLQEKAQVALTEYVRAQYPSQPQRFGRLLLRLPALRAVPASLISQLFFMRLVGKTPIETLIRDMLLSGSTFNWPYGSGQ

Renilla = Renilla signal in NR2F6 agonist screening, cmpd/DMSO; details: for fold induction at 2 µM / fold induction at 10 µM / fold induction at 40 µM: Renilla, read-out: Renilla F4, cmpd/DMSO (mean)

Structure (SMILES)	Firefly ERalpha transient, cmpd/DMSO (mean) (ERα [1])	Firefly ERalpha transient, cmpd/DMSO (mean) (ERα [2]; 2 uM)	Firefly ERalpha transient, cmpd/DMSO (mean) (ERα [2]; 40 uM)	Firefly F4, cmpd/DMSO (mean) (NR2F6; 2 uM, clone F4)	Firefly F4, cmpd/DMSO (mean) (NR2F6; 10 uM, clone F4)	Firefly F4, cmpd/DMSO (mean) (NR2F6; 40 uM, clone F4)	fold induction at 2 µM (Renilla_ERa; Table 15, 2 uM)	fold induction at 10 µM (Renilla_ERa; Table 15, 10 uM)	fold induction at 40 µM (Renilla_ERa; Table 15, 40 uM)	Firefly ERalpha transient, cmpd/DMSO (mean) (ERα [1]; Table 15)	Firefly ERalpha transient, cmpd/DMSO (mean) (ERα [2]; Table 15, 2 uM)	Firefly ERalpha transient, cmpd/DMSO (mean) (ERα [2]; Table 15, 40 uM)	Firefly F4, cmpd/DMSO (mean) (NR2F6; Table 15, 2 uM)	Firefly F4, cmpd/DMSO (mean) (NR2F6; Table 15, 10 uM)	Firefly F4, cmpd/DMSO (mean) (NR2F6; Table 15, 40 uM)	fold induction at 2 µM (Renilla; Table 15, 2 uM)	fold induction at 10 µM (Renilla; Table 15, 10 uM)	fold induction at 40 µM (Renilla; Table 15, 40 uM)	also measured
O=c1cccc2n1CCN(c1nc(NCC3CCCO3)nc(N3CCCC3)n1)C2 (stereo not drawn) [Compound 42]	1.0	2.3	1.0	1.6	0.8	0.9	–	–	–	–	–	–	–	–	–	–	–	–	Renilla ERalpha transient, cmpd/DMSO (mean) (Renilla_ERa; 2 uM): 0.9; Renilla ERalpha transient, cmpd/DMSO (mean) (Renilla_ERa; 10 uM): 1.0; Renilla ERalpha transient, cmpd/DMSO (mean) (Renilla_ERa; 40 uM): 1.0; Renilla F4, cmpd/DMSO (mean) (Renilla; 2 uM, clone F4): 0.7; Renilla F4, cmpd/DMSO (mean) (Renilla; 10 uM, clone F4): 0.8; Renilla F4, cmpd/DMSO (mean) (Renilla; 40 uM, clone F4): 1.1
CC1CCN(c2nc(NCCN3CCOCC3)nc(N3CC4CC(C3)c3cccc(=O)n3C4)n2)CC1 (stereo not drawn) [Compound 43]	1.4	1.4	1.2	1.0	0.9	0.8	–	–	–	–	–	–	–	–	–	–	–	–	fold induction at 2 µM (Renilla_ERa; 2 uM): 1.1; fold induction at 10 µM (Renilla_ERa; 10 uM): 1; fold induction at 40 µM (Renilla_ERa; 40 uM): 1; fold induction at 2 µM (Renilla; 2 uM, clone F4): 1; fold induction at 10 µM (Renilla; 10 uM, clone F4): 1.1; fold induction at 40 µM (Renilla; 40 uM, clone F4): 1.1
O=C(O)c1ccc(-n2ncc(Cl)c(Cl)c2=O)cc1 [Compound 44]	1.3	1.5	0.5	1.3	1.5	0.7	–	–	–	–	–	–	–	–	–	–	–	–	fold induction at 2 µM (Renilla_ERa; 2 uM): 1.3; fold induction at 10 µM (Renilla_ERa; 10 uM): 1.2; fold induction at 40 µM (Renilla_ERa; 40 uM): 0.3; fold induction at 2 µM (Renilla; 2 uM, clone F4): 1.1; fold induction at 10 µM (Renilla; 10 uM, clone F4): 1.1; fold induction at 40 µM (Renilla; 40 uM, clone F4): 0.3
O=c1c(Cl)c(Cl)cnn1-c1ccccc1 [Compound 45]	1.6	1.8	0.6	3.2	1.2	0.7	–	–	–	–	–	–	–	–	–	–	–	–	fold induction at 2 µM (Renilla_ERa; 2 uM): 1.6; fold induction at 10 µM (Renilla_ERa; 10 uM): 0.8; fold induction at 40 µM (Renilla_ERa; 40 uM): 0.2; fold induction at 2 µM (Renilla; 2 uM, clone F4): 1.6; fold induction at 10 µM (Renilla; 10 uM, clone F4): 0.8; fold induction at 40 µM (Renilla; 40 uM, clone F4): 0.2
Cc1ccc(NC(=O)c2noc3c2CC(C)(C)CC3)cc1C [Compound Z1]	–	–	–	–	–	–	1.1	1	0.7	2.2	2.4	0.9	1.9	1.8	0.8	1.3	1.6	0.8	–
Cc1ccc(NC(=O)c2n[nH]c3c2CCCCC3)cc1C [Compound Z2]	–	–	–	–	–	–	1.2	1.1	1	1.1	1.6	0.7	1.4	1.9	0.6	1.2	1.8	1.2	–
COc1cccc(-c2noc(Cn3nccc(Cl)c3=O)n2)c1 [Compound Z3]	–	–	–	–	–	–	1.1	1	0.9	2.6	2.2	1.7	1.5	1.1	1.6	1.5	1.4	0.9	–
COc1cccc(-c2noc(Cn3ncc(Cl)cc3=O)n2)c1 [Compound Z4]	–	–	–	–	–	–	1.2	1.1	0.8	1.4	1.5	0.8	1.5	1.2	0.8	1.1	1.6	1.4	–
COc1cccc(-c2noc(Cn3ncccc3=O)n2)c1 [Compound Z5]	–	–	–	–	–	–	1	1	1	2.5	2.4	2.4	1.5	0.9	1.2	1	0.9	1.2	–
COc1cccc(-c2noc(Cn3ncc4ccccc4c3=O)n2)c1 [Compound Z6]	–	–	–	–	–	–	–	–	–	2.2	2.0	1.1	1.4	1.4	1.1	–	–	–	Renilla ERalpha transient, cmpd/DMSO (mean) (Renilla_ERa; Table 15, 2 uM): 1.1; Renilla ERalpha transient, cmpd/DMSO (mean) (Renilla_ERa; Table 15, 10 uM): 1.1; Renilla ERalpha transient, cmpd/DMSO (mean) (Renilla_ERa; Table 15, 40 uM): 0.9; Renilla F4, cmpd/DMSO (mean) (Renilla; Table 15, 2 uM): 1.1; Renilla F4, cmpd/DMSO (mean) (Renilla; Table 15, 10 uM): 1.1; Renilla F4, cmpd/DMSO (mean) (Renilla; Table 15, 40 uM): 0.9
COc1ccc(-c2noc(Cn3ncc4ccccc4c3=O)n2)cc1 [Compound Z7]	–	–	–	–	–	–	1.1	1.1	1	2.0	1.3	1.5	0.9	1.2	1.0	1.3	1.1	1.1	–
CS(=O)(=O)Nc1ccc([N+](=O)[O-])c2nonc12 [Compound Z13]	–	–	–	–	–	–	–	–	–	1.7	1.2	1.1	1.0	0.9	1.6	–	–	–	Renilla ERalpha transient, cmpd/DMSO (mean) (Renilla_ERa; Table 15, 2 uM): 0.8; Renilla ERalpha transient, cmpd/DMSO (mean) (Renilla_ERa; Table 15, 10 uM): 0.6; Renilla ERalpha transient, cmpd/DMSO (mean) (Renilla_ERa; Table 15, 40 uM): 0.4; Renilla F4, cmpd/DMSO (mean) (Renilla; Table 15, 2 uM): 0.8; Renilla F4, cmpd/DMSO (mean) (Renilla; Table 15, 10 uM): 0.7; Renilla F4, cmpd/DMSO (mean) (Renilla; Table 15, 40 uM): 0.4
CC(=O)Nc1ccc(Br)c2nonc12 [Compound Z14]	–	–	–	–	–	–	1.1	1.1	1	1.2	1.0	1.0	1.2	0.8	1.2	0.8	0.9	1	–
